Reference: paper PMC7377239, “Cardiovascular Effects of Polychlorinated Biphenyls and Their Major Metabolites” (Environmental Health Perspectives, 2020)
Where a name gives a salt, the structure may show the parent alone. Read-outs that look alike come from different tables or passages of the source.

Tested on: iCell cardiomyocytes (human iPSC-derived cardiomyocytes)
Assay: Intracellular Ca2+ flux / beating parameters in iCell cardiomyocytes (FLIPR tetra), 90 min or 24 h
Type: cell-based
Conditions: Homo sapiens, Cardiomyocyte, 0.00 µM = 100.00; for activity at 0.1 µM: 0.10 µM
Summary of the method: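 PODs were defined as the concentration crossing one SD of the vehicle-control means (0.5% DMSO) on four-parameter logistic fits of Ca2+ trace metrics (peak height, frequency, peak-spacing CV, decay/rise ratio). Traces came from 100 s, 8 Hz FLIPR reads at 37 °C on calcium-dye-loaded iCell cardiomyocytes. Before reading, cells were treated for 90 min or 24 h from 5× chemical plates spanning 0.05–500 µM, in triplicate.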

[1] = 1.5 h, read-out: cm.amp.avg.90min
[2] = 1.5 h, read-out: cm.amp.cv.90min
[3] = 1.5 h, read-out: cm.decay.rise.90min
[4] = 1.5 h, read-out: cm.spacing.cv.90min
[5] = 24 h, read-out: cm.amp.avg.24hrs
[6] = 24 h, read-out: cm.amp.cv.24hrs
[7] = 24 h, read-out: cm.decay.rise.24hrs
[8] = 24 h, read-out: cm.spacing.cv.24hrs

O=S(=O)(O)Oc1cc(-c2ccccc2)ccc1Cl [3-yl PCB 3 sulfate]
activity at 0.01 µM [1]: 95.2% | activity at 0.01 µM [2]: 101% | activity at 0.01 µM (1.5 h, read-out: cm.bpm.90min): 96.5% | activity at 0.01 µM [3]: 101% | activity at 0.01 µM [4]: 112% | activity at 0.1 µM [1]: 102% | activity at 0.1 µM [2]: 103% | activity at 0.1 µM (1.5 h, read-out: cm.bpm.90min): 97.8% | activity at 0.1 µM [3]: 105% | activity at 0.1 µM [4]: 107% | activity at 1 µM [1]: 96.9% | activity at 1 µM [2]: 94.9% | activity at 1 µM (1.5 h, read-out: cm.bpm.90min): 99.1% | activity at 1 µM [3]: 97.7% | activity at 1 µM [4]: 102% | activity at 10 µM [1]: 97.3% | activity at 10 µM [2]: 107% | activity at 10 µM (1.5 h, read-out: cm.bpm.90min): 96.5% | activity at 10 µM [3]: 96.9% | activity at 10 µM [4]: 101% | activity at 100 µM [1]: 113% | activity at 100 µM [2]: 90.5% | activity at 100 µM (1.5 h, read-out: cm.bpm.90min): 99.1% | activity at 100 µM [3]: 95.6% | activity at 100 µM [4]: 92.1% | activity at 0.01 µM [5]: 58.6% | activity at 0.01 µM [6]: 42.1% | activity at 0.01 µM (24 h, read-out: cm.bpm.24hrs): 49.6% | activity at 0.01 µM [7]: 54.9% | activity at 0.01 µM [8]: 62.7% | activity at 0.1 µM [5]: 51.9% | activity at 0.1 µM [6]: 31.8% | activity at 0.1 µM (24 h, read-out: cm.bpm.24hrs): 47.7% | activity at 0.1 µM [7]: 58% | activity at 0.1 µM [8]: 42.3% | activity at 1 µM [5]: 26.2% | activity at 1 µM [6]: 69.1% | activity at 1 µM (24 h, read-out: cm.bpm.24hrs): 46.8% | activity at 1 µM [7]: 51.2% | activity at 1 µM [8]: 53.3% | activity at 10 µM [5]: 79.1% | activity at 10 µM [6]: 146% | activity at 10 µM (24 h, read-out: cm.bpm.24hrs): 94.5% | activity at 10 µM [7]: 96.3% | activity at 10 µM [8]: 96.4% | activity at 100 µM [5]: 97.7% | activity at 100 µM [6]: 77.4% | activity at 100 µM (24 h, read-out: cm.bpm.24hrs): 85% | activity at 100 µM [7]: 116% | activity at 100 µM [8]: 85.3%
